Data set [1] can be described thus: physchem. The following applies: kinetic from dmso stock.
In data set [2] the test system is cytochrome P450 (CYP) enzyme. Further details: method as in PMID 12802751. The settings on record: after repeated dosing; cited from earlier work.
The test system of data set [3] is P-gp (human MDR1). Put plainly: in vitro. The settings on record: dog, MDCK-MDR1, MDCKII-MDR1 Papp A→B.
Data set [4] deals with EV-D68. The settings on record: in-vitro; read-out: Published EV-D68 EC50; cited from earlier work.
Data set [5] relates to MDCKII cells transfected with human MDR1 (P-gp). The settings on record: dog, MDCK-MDR1.
A short description of data set [6]: Mouse microsomal stability. The following applies: pH 7.4.
Data set [7] can be described thus: Human microsomal stability. The settings on record: for microsomal CLint at 2 µM: human, pH 7.4.
Data set [8] deals with human pregnane-X receptor (PXR). Further details: method as in PMID 37327878. The following applies: cited from earlier work.
Data set [9] can be described thus: in vitro. The following applies: human.
The nature of data set [10]: LogD at pH 7.4, shake-flask method. The settings on record: for logD: pH 7.4.
Data set [11] relates to EV-D68 (strain US/MO/14-18949). Put plainly: EV-D68 antiviral screening assay in RD cells.
The subject of data set [12] is cytochrome P450 (CYP) enzyme. More on the design: method as in PMID 37327878. The settings on record: cited from earlier work.
Data set [13] concerns RD cells. Put plainly: RD cell cytotoxicity by MTT assay on uninfected cells. The settings on record: geometric mean.
Data set [14] is described as follows: Kinetic aqueous solubility (KSOL), shake-flask method.
Data set [15] has as its system P-gp (human MDR1). Put plainly: MDCKII-MDR1 A→B permeability. The settings on record: dog, MDCK-MDR1.
Data set [16] relates to MDCKII cells transfected with human MDR1 (P-gp). Put plainly: MDCKII-MDR1 A→B permeability. The following applies: apical to basolateral.
[17] abbreviates: Enterovirus D, EVD68, RD, read-out: EC50 EV-D68, RD cells, strain US/MO/14-18949, geometric mean.
Setting [18] is: Enterovirus D, EVD68, RD, read-out: EV-D68 pEC50, pEC50 = −log10(EC50) (converted), RD cells.

Values after ≈ are worked out from the molar mass of the structure shown. Read-outs that look alike come from different tables or passages of the source.

As to `Cc1cc(CCCOc2c(C)cc(-c3noc(C(F)(F)F)n3)cc2C)on1` [Compound 1, Pleconaril], the solubility (kinetic) in data set [1] turned out to be 18 µM (≈ 6.86 µg/mL). Moreover, the “CYP induction (side effect)” value in data set [2] is reported as “well-known side effect”. In data set [3], this molecule yielded a Papp A→B of 14 nm/s. For the same molecule, the EC50 was 0.43 µM in [4]; < 0.0295 µM in [11] (setting [17]); < 0.029 µM in data set [11] (read-out: EC50 EV-D68, RD cells, strain US/MO/14-18949, geometric mean, listed as Pleconaril (1)). Also, the “MDCKII-MDR1 Papp A→B” value in data set [5] is 1.42 10^−6 cm s^−1. Further, the microsomal CLint at 2 µM came out at 22 µL/min/mg in data set [6] (liver microsomes) and 12 µL/min/mg in data set [7] (microsomes). In data set [8], the “agonism of human PXR” value is given as “Neither 1 nor 2 are agonists”. The CC50 in data set [9] (RD cells, uninfected) was > 50 µM. In [10], this molecule registered a logD of 4.2.
As to `Cc1cc(-c2noc(C(F)(F)F)n2)ccc1OCCCc1cc(C(=O)N(C)C)no1` [Compound 2, CP-11526092, reference compound], the solubility (kinetic) in data set [1] is 9 µM (≈ 3.82 µg/mL). For the same molecule, the “CYP induction according to in-vitro data” value in [12] is “still present”. The Papp A→B in data set [3] is 23 nm/s. In addition, the concentration for a half-maximal effect (EC50) was 0.042 µM in data set [4], 0.043 µM in data set [11] (setting [17]) and 0.0437 µM in [11] (setting [18]). In addition, the “MDCKII-MDR1 Papp A→B” value in data set [5] is given as 2.26 10^−6 cm s^−1. Also, the intrinsic clearance (microsomal CLint) at 2 µM in [6] (liver microsomes) came to 24 µL/min/mg; in data set [7] (liver microsomes) it was 11 µL/min/mg. Further, the CC50 in data set [13] (listed as CP-11526092 (2)) is > 50 µM; in data set [9] (RD cells, uninfected), > 42 µM. Moreover, the “agonism of human PXR” value in [8] is “Neither 1 nor 2 are agonists”. Also, in [10], the log distribution coefficient (logD) was ≥ 4.5. The “Lipophilic Cellular Efficiency (LipCellE)” value in [11] (cellular pEC50 − AlogP98) was > 3.
Regarding `Cc1cc(-c2noc(C(F)(F)F)n2)ccc1OCCNc1cc(C(=O)N(C)C)no1` [Compound 24], the CC50 in data set [9] (RD cells, uninfected) was > 50 µM. In addition, the concentration giving a half-maximal response (EC50) in data set [11] (setting [17]) is > 30.4 µM.
For `CN(C)C(=O)c1cc(CCCn2ccc3cc(C#N)ccc32)on1` [Compound 25], in that order: > 50 µM and 2.87 µM.
`CN(C)C(=O)c1cc(CCCn2ccc3cc(-c4noc(C(F)(F)F)n4)cnc32)on1` [Compound 29] had a kinetic solubility in [1] of 28 µM (≈ 12.2 µg/mL). In addition, the Papp A→B in data set [3] was found to be 155 nm/s. Further, the results for the intrinsic clearance (microsomal CLint) at 2 µM in data set [6] (liver microsomes) and in data set [7] (liver microsomes) were 133 µL/min/mg and 30 µL/min/mg, respectively. For the same molecule, the CC50 in data set [9] (RD cells, uninfected) is > 100 µM. Moreover, in data set [10], the logD worked out at 3.8. For the same molecule, the EC50 in data set [11] (setting [17]) is 1.89 µM.
Regarding `CN(C)C(=O)c1cc(CCCn2ccc3cc(-c4noc(C(F)(F)F)n4)ncc32)on1` [Compound 30], the kinetic solubility in [1] was found to be 30 µM (≈ 13 µg/mL). The apical-to-basolateral permeability (Papp A→B) in data set [3] amounted to 35 nm/s. The figures for the intrinsic clearance (microsomal CLint) at 2 µM in data set [6] (liver microsomes) and in data set [7] (liver microsomes) were 29 µL/min/mg and 20 µL/min/mg, respectively. In data set [9] (RD cells, uninfected), the CC50 was > 100 µM. This molecule yielded a logD in data set [10] of 3. The EC50 in data set [11] (setting [17]) is 8.43 µM.
In the case of `CN(C)C(=O)c1cc(-c2cccc(Oc3ccc(-c4noc(C(F)(F)F)n4)cc3)c2)on1` [Compound 31], the CC50 in data set [9] (RD cells, uninfected) was > 50 µM. Moreover, the EC50 in [11] (setting [17]) turned out to be 4.87 µM.
Take `Cc1cc(-c2noc(C(F)(F)F)n2)ccc1Oc1cncc(-c2cc(C(=O)N(C)C)no2)c1` [Compound 32]: in data set [9] (RD cells, uninfected), the CC50 is > 50 µM. Also, in data set [11] (setting [17]), the EC50 was found to be 4.35 µM.
`Cc1cc(-c2noc(C(F)(F)F)n2)ccc1O[C@@H]1CCN(c2cc(C(=O)N(C)C)no2)C1` [Compound 33]: the kinetic solubility in data set [1] is < 10 µM. For the same molecule, in data set [14], the “Solubility, Kinetic (KSOL)” value was 9 µM (≈ 4.06 µg/mL). In addition, the apical-to-basolateral permeability (Papp A→B) in data set [3] came to 40 nm/s. The intrinsic metabolic clearance (microsomal CLint) at 2 µM in data set [6] (liver microsomes) was found to be 38 µL/min/mg; in [7] (liver microsomes), 24 µL/min/mg. Further, in data set [9] (RD cells, uninfected), the CC50 was > 50 µM. Moreover, the pH-dependent lipophilicity (logD) in data set [10] was 4.2. Moreover, in data set [11] (setting [17]), the EC50 came out at 0.437 µM.
Turning to `Cc1cc(-c2noc(C(F)(F)F)n2)ccc1O[C@H]1CCN(c2cc(C(=O)N(C)C)no2)C1` [Compound 34], in [1], the kinetic solubility is < 10 µM. The “Solubility, Kinetic (KSOL)” value in [14] came out at 7 µM (≈ 3.16 µg/mL). The Papp A→B in data set [3] stood at 25 nm/s. For the same molecule, the figures for the intrinsic clearance (microsomal CLint) at 2 µM in data set [6] (liver microsomes) and in data set [7] (liver microsomes) were 41 µL/min/mg and 22 µL/min/mg, respectively. For the same molecule, in data set [9] (RD cells, uninfected), the CC50 is > 50 µM. In addition, the pH-dependent lipophilicity (logD) in data set [10] worked out at 4.2. Moreover, the concentration giving a half-maximal response (EC50) in data set [11] (setting [17]) was 0.058 µM; in data set [11] (setting [18]) it was 0.0589 µM. Also, the “fold more potent than 33 (EV-D68)” value in [11] (relative to enantiomer 33) is 10 fold.
With `Cc1cc(-c2noc(C(F)(F)F)n2)ccc1OCCCc1nnc(C(F)(F)F)o1` [Compound 38], the CC50 in [9] (RD cells, uninfected) is > 50 µM. For the same molecule, the EC50 in [11] (Enterovirus D, EVD68, RD, read-out: EC50 EV-D68 (Table 4), RD cells, Table 4 head) stood at 39.9 µM.
Consider `C#CCc1ccc(OCCCc2cc(C(=O)N(C)C)no2)cc1` [Compound 55], for which the kinetic solubility in [1] is 198 µM (≈ 61.8 µg/mL). Further, the pH-dependent lipophilicity (logD) in [10] is 3.1. Besides, the EC50 in [11] (setting [18]) was 0.617 µM.
On to `CCO/N=C/c1ccc(OCCC2CCN(c3ccc(C)nn3)CC2)cc1` [Compound S-57, BTA-188], for which the CC50 in data set [13] is > 50 µM.
Regarding `CCOC(=O)c1ccc(OCCC2CCN(c3ccc(C)nn3)CC2)cc1` [Compound S-58, Pirodavir, reference compound], the results for the microsomal CLint at 2 µM in data set [6] (microsomes) and in data set [7] (microsomes) were 580 µL/min/mg and 708 µL/min/mg, respectively. Also, the CC50 in data set [9] is > 50 µM. In addition, in data set [11] (setting [17]), the concentration for a half-maximal effect (EC50) came out at 0.277 µM. In data set [15], this molecule returned a Papp A→B of 90 nm/s.
Regarding `Cc1nc(-c2ccc(OCCCCCN3CCN(c4ccnc(N)c4)C3=O)cc2)no1` [Compound S-59, NLD-22], the CC50 in [13] was > 25.6 µM.
With `Nc1nc(-c2ccccc2)nc2[nH]nc(Nc3ccc(C(F)(F)F)cc3)c12` [Compound S-60, OBR-5-340, reference compound], the “Solubility, Kinetic (KSOL)” value in data set [14] amounted to 2 µM (≈ 0.741 µg/mL). Further, the “Clint HLM” value in [7] (human liver microsomes) was < 10 µL/min/mg. Also, the CC50 in data set [13] was > 50 µM. Further, in [10] (pH 7.4, shake-flask), the “LogD (pH 7.4)” value was ≥ 4.5. In addition, the EC50 in data set [11] (read-out: EC50 EV-D68, RD cells, strain US/MO/14-18949, geometric mean) stood at 7.16 µM. For the same molecule, the “MDCKII-MDR1 Papp A→B” value in data set [16] is on record as 1.8 10^−6 cm s^−1.

(Values after paper doi:10.1101/2025.08.08.668114, “Structure-Activity Relationship Studies Towards Analogues of Pleconaril as Novel Enterovirus-D68 Capsid-Targeting Antivirals” (bioRxiv, 2025).)
